Assay [1] relates to cellular H3K36me2 level in thyroid carcinoma cell line CGTH-W-1 (NSD2 E1099K). As to the kind of experiment: H3K36me2 cellular ELISA assay in CGTH-W-1 line. The assay is classed as cell-based. The conditions noted are these: Homo sapiens, CGTH-W-1, 72 h, read-out: H3K36me2 ELISA in CGTH-W-1. The method in brief: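 After 72 h compound treatment of NSD2 E1099K-mutant CGTH-W-1 cells, H3K36me2 and total H3 were quantified by ELISA with chemiluminescent read-out. A parallel-seeded plate gave cell viability by CellTiter-Glo.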
In general terms: In an ELISA, binding on a coated surface is turned into a signal by an enzyme label.

The test system of assay [2] is cellular H3K36me2 level in multiple myeloma cell line KMS11 (t(4;14)+). As to the kind of experiment: H3K36me2 cellular ELISA assay in KMS11-Par line. The assay is classed as cell-based. The conditions noted are these: Homo sapiens, KMS-11, ELISA, read-out: H3K36me2 ELISA in KMS11-Par. The method in brief: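 After 72 h compound exposure, HCl-extracted histones from KMS11 (t(4;14)+) cells were probed by ELISA for H3K36me2 against total H3 with a chemiluminescence read-out. Cells were plated at 1,250/well in Opti-MEM plus B-27 and N2 the day before. A parallel CellTiter-Glo plate tracked viability.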

Another assay deals with NSD2 [1-1365] (Homo sapiens (Human), UniProt O96028). As to the kind of experiment: LC-MS/MS-based NSD2 enzymatic assay (SAH production). The conditions noted are these: read-out: NSD2 IC50. The class given is biochemical. The method in brief: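 SAH formed was measured by LC-MS/MS using d4-SAH as internal standard and an SAH calibration curve. Compounds were preincubated 20 min with NSD2 [1-1365] and SAM; mouse-liver nucleosome then started a 90 min room-temperature reaction (8 nM enzyme, 1 μM SAM, 400 nM nucleosome final, pH 8.0), stopped with TFA.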
Chain of NSD2 [1-1365] (O96028 whole entry): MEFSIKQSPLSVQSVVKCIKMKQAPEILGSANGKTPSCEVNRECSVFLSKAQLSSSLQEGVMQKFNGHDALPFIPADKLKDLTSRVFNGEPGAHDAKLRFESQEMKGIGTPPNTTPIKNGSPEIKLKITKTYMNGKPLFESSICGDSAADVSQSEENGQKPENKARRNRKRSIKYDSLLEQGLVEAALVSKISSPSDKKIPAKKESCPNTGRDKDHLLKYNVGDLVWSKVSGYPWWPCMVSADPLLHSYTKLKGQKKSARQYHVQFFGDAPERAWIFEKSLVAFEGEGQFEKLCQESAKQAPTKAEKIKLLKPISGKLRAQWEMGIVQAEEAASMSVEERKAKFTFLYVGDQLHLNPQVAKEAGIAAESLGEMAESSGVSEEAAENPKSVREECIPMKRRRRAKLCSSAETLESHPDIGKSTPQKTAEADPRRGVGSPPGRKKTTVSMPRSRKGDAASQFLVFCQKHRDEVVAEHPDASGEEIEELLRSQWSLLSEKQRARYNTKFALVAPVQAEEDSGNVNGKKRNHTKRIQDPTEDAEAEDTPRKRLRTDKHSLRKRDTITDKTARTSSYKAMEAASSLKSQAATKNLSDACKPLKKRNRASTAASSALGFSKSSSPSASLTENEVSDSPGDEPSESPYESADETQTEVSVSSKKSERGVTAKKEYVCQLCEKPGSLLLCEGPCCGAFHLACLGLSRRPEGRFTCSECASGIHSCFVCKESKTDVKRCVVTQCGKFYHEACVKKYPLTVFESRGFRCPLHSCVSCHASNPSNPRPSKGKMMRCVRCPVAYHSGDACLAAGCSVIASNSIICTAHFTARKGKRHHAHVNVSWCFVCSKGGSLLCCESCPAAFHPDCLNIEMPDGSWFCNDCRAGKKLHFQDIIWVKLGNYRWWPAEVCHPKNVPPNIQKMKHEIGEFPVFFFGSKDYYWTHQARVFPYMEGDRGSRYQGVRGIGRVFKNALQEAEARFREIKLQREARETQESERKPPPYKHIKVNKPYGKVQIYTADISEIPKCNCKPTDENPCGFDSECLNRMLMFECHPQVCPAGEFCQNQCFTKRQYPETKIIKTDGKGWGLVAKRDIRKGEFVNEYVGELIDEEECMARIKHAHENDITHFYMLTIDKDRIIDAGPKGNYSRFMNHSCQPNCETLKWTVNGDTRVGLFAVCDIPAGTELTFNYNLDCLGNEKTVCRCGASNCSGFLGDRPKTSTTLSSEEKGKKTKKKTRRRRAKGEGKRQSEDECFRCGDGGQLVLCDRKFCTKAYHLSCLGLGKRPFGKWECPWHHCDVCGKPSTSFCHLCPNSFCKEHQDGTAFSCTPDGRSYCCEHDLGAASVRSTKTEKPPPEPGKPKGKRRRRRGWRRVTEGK

[3] abbreviates: KMS11-Par line (t(4;14)+), 72 hours treatment.
Where [4] appears, read: NSD2 biochemical activity, class symbols.

Each structure is given as a SMILES string. Read-outs that look alike come from different tables or passages of the source.

Regarding `Nc1ncnc2c1ncn2Cc1cc(-c2ccc(F)c(F)c2)ncc1N1CCCC(N)(c2ccc(O)c(F)n2)C1` (stereo not drawn) [Example 214, 6-(3-amino-1-(4-((6-amino-9H-purin-9-yl)methyl)-6-(3,4-difluorophenyl)pyridin-3-yl)piperidin-3-yl)-2-fluoropyridin-3-ol], the IC50 in assay [1] is 444 nM; in assay [2] (KMS11-Par line, 72 hours), 2430 nM; at NSD2 [1-1365], 10 to 1000 nM.
`Cc1cccc([C@@]2(N)CCCN(c3cnc(-c4ccc(F)c(F)c4)cc3Cn3cnc4c(N)ncnc43)C2)[n+]1[O-]` [Example 232, (R)-2-(3-amino-1-(4-((6-amino-9H-purin-9-yl)methyl)-6-(3,4-difluorophenyl)pyridin-3-yl)piperidin-3-yl)-6-methylpyridine 1-oxide]: the IC50 was 1470 nM in assay [1]; 7650 nM in assay [2] (KMS11-Par line, 72 hours); 10 to 1000 nM at NSD2 [1-1365].
For `Cn1ccc(C(=O)C2(N)CCCN(c3cnc(-c4ccc(F)c(F)c4)cc3Cn3cnc4c(N)ncnc43)C2)n1` (stereo not drawn) [Example 110, (3-amino-1-(4-((6-amino-9H-purin-9-yl)methyl)-6-(3,4-difluorophenyl)pyridin-3-yl)piperidin-3-yl)(1-methyl-1H-pyrazol-3-yl)methanone], the IC50 in assay [1] was 1360 nM; in assay [2] (setting [3]), 6340 nM; at NSD2 [1-1365] (setting [4]) it was 10 to 1000 nM.
With `Nc1ncnc2c1ncn2Cc1cc(-c2cc(F)c(OC(F)F)cc2F)ncc1N1CCC[C@](N)([C@@H](O)C(F)F)C1` [Example 150, (R)-1-((R)-3-amino-1-(4-((6-amino-9H-purin-9-yl)methyl)-6-(4-(difluoromethoxy)-2,5-difluorophenyl)pyridin-3-yl)piperidin-3-yl)-2,2-difluoroethan-1-ol], the results for the IC50 (in assay [1]; in assay [2] (setting [3]); at NSD2 [1-1365] (setting [4])) were 307 nM, 1670 nM and 10 to 1000 nM, respectively.
Consider `Nc1ncnc2c1ncn2Cc1cc(-c2ccc(F)c(F)c2)ncc1N1CCC[C@](N)([C@@H](F)CO)C1` [Example 285, (R)-2-((R)-3-amino-1-(4-((6-amino-9H-purin-9-yl)methyl)-6-(3,4-difluorophenyl)pyridin-3-yl)piperidin-3-yl)-2-fluoroethan-1-ol], for which the IC50 in assay [1] is 43.7 nM; in assay [2] (KMS11-Par line, 72 hours), 885 nM; on NSD2 [1-1365], 1 to 10 nM.
`C[C@@H](F)c1cccc([C@@]2(N)CCCN(c3cnc(-c4ccc(F)cc4)cc3Cn3cnc4c(N)ncnc43)C2)n1` [Example 212, 9-((5-((R)-3-amino-3-(6-((R)-1-fluoroethyl)pyridin-2-yl)piperidin-1-yl)-2-(4-fluorophenyl)pyridin-4-yl)methyl)-9H-purin-6-amine]: the IC50 in assay [1] was 132 nM; in assay [2] (KMS11-Par line, 72 hours), 289 nM; on NSD2 [1-1365], 10 to 1000 nM.
Turning to `Nc1ncnc2c1ncn2Cc1cc(-c2ccc(Cl)c(F)c2)ncc1N1CCC[C@](N)([C@@H](O)C(F)F)C1` [Example 124, (R)-1-((R)-3-amino-1-(4-((6-amino-9H-purin-9-yl)methyl)-6-(4-chloro-3-fluorophenyl)pyridin-3-yl)piperidin-3-yl)-2,2-difluoroethan-1-ol], the IC50 in assay [1] was 159 nM; in assay [2] (setting [3]) it was 848 nM; at NSD2 [1-1365] (setting [4]), 1 to 10 nM.
With `COc1ccc(-c2cc(Cn3cnc4c(N)ncnc43)c(N3CCC[C@](N)([C@H](O)C(F)F)C3)cn2)cc1Cl` [Example 125, (S)-1-((R)-3-amino-1-(4-((6-amino-9H-purin-9-yl)methyl)-6-(3-chloro-4-methoxyphenyl)pyridin-3-yl)piperidin-3-yl)-2,2-difluoroethan-1-ol], the IC50 is 775 nM in assay [1], 3950 nM in assay [2] (setting [3]) and 1 to 10 nM at NSD2 [1-1365] (setting [4]).
As to `CC(C)C(=O)[C@@]1(N)CCCN(c2cnc(-c3ccc(F)c(F)c3)cc2Cn2cnc3c(N)ncnc32)C1` [Example 104, (R)-1-(3-amino-1-(4-((6-amino-9H-purin-9-yl)methyl)-6-(3,4-difluorophenyl)pyridin-3-yl)piperidin-3-yl)-2-methylpropan-1-one], the IC50 in assay [1] is 26 nM; in assay [2] (setting [3]), 60 nM; at NSD2 [1-1365] (setting [4]), 10 to 1000 nM.
As to `Nc1ncnc2c1ncn2Cc1cc(-c2ccc(C(F)F)cc2F)ncc1N1CCC[C@](N)([C@@H](O)C(F)F)C1` [Example 132, (R)-1-((R)-3-amino-1-(4-((6-amino-9H-purin-9-yl)methyl)-6-(4-(difluoromethyl)-2-fluorophenyl)pyridin-3-yl)piperidin-3-yl)-2,2-difluoroethan-1-ol], the IC50 in assay [1] was 264 nM; in assay [2] (setting [3]) it was 1230 nM; at NSD2 [1-1365] (setting [4]) it was 1 to 10 nM.
Regarding `Nc1ncnc2c1ncn2Cc1cc(-c2ccc(F)c(Cl)c2)ncc1N1CCC[C@](N)([C@@H](O)C(F)F)C1` [Example 122, (R)-1-((R)-3-amino-1-(4-((6-amino-9H-purin-9-yl)methyl)-6-(3-chloro-4-fluorophenyl)pyridin-3-yl)piperidin-3-yl)-2,2-difluoroethan-1-ol], the IC50 in assay [1] is 496 nM; in assay [2] (setting [3]) it was 1830 nM; on NSD2 [1-1365] (setting [4]), 1 to 10 nM.
Take `Nc1ncnc2c1ncn2Cc1cc(-c2ccc(Cl)cc2F)ncc1N1CCC[C@](N)([C@@H](O)C(F)F)C1` [Example 133, (R)-1-((R)-3-amino-1-(4-((6-amino-9H-purin-9-yl)methyl)-6-(4-chloro-2-fluorophenyl)pyridin-3-yl)piperidin-3-yl)-2,2-difluoroethan-1-ol]: the IC50 is 177 nM in assay [1], 1610 nM in assay [2] (setting [3]) and 10 to 1000 nM at NSD2 [1-1365] (setting [4]).
Consider `Nc1ncnc2c1ncn2Cc1cc(-c2cc(F)c(OC(F)F)cc2F)ncc1N1CCC[C@](N)([C@H](O)C(F)F)C1` [Example 128, (S)-1-((R)-3-amino-1-(4-((6-amino-9H-purin-9-yl)methyl)-6-(4-(difluoromethoxy)-2,5-difluorophenyl)pyridin-3-yl)piperidin-3-yl)-2,2-difluoroethan-1-ol], for which the IC50 in assay [1] is 60 nM; in assay [2] (setting [3]), 693 nM; on NSD2 [1-1365] (setting [4]) it was 1 to 10 nM.
As for `Nc1ncnc2c1ncn2Cc1cc(-c2ccc(OC(F)F)cc2F)ncc1N1CCC[C@](N)([C@H](O)C(F)F)C1` [Example 153, (S)-1-((R)-3-amino-1-(4-((6-amino-9H-purin-9-yl)methyl)-6-(4-(difluoromethoxy)-2-fluorophenyl)pyridin-3-yl)piperidin-3-yl)-2,2-difluoroethan-1-ol], the IC50 was 217 nM in assay [1], 5080 nM in assay [2] (setting [3]) and 10 to 1000 nM on NSD2 [1-1365] (setting [4]).
Turning to `CC1CCCCN1C(=O)C1(N)CCCN(c2cnc(-c3ccc(F)c(F)c3)cc2Cn2cnc3c(N)ncnc32)C1` (stereo not drawn) [Example 87, (3-amino-1-(4-((6-amino-9H-purin-9-yl)methyl)-6-(3,4-difluorophenyl)pyridin-3-yl)piperidin-3-yl)(2-methylpiperidin-1-yl)methanone], the IC50 is 1600 nM in assay [1], 6420 nM in assay [2] (setting [3]) and 10 to 1000 nM on NSD2 [1-1365] (setting [4]).
`COc1ccc(-c2cc(Cn3cnc4c(N)ncnc43)c(N3CCC[C@](N)(c4cccc(Cl)n4)C3)cn2)cc1F` [Example 213, (R)-9-((5-(3-amino-3-(6-chloropyridin-2-yl)piperidin-1-yl)-2-(3-fluoro-4-methoxyphenyl)pyridin-4-yl)methyl)-9H-purin-6-amine]: the IC50 in assay [1] was 258 nM; in assay [2] (KMS11-Par line, 72 hours) it was 387 nM; at NSD2 [1-1365], 1 to 10 nM.
Regarding `Cn1ccc(C[C@@]2(N)CCCN(c3cnc(-c4ccc(F)c(F)c4)cc3Cn3cnc4c(N)ncnc43)C2)n1` [Example 56, (S)-9-((5-(3-amino-3-((1-methyl-1H-pyrazol-3-yl)methyl)piperidin-1-yl)-2-(3,4-difluorophenyl)pyridin-4-yl)methyl)-9H-purin-6-amine], the IC50 in assay [1] was 273 nM; in assay [2] (setting [3]) it was 234 nM; at NSD2 [1-1365] (setting [4]) it was 1 to 10 nM.
On the same counts, the results for `COc1cc(F)c(-c2cc(Cn3cnc4c(N)ncnc43)c(N3CCC[C@](N)([C@@H](O)C(F)F)C3)cn2)cc1F` [Example 160, (R)-1-((R)-3-amino-1-(4-((6-amino-9H-purin-9-yl)methyl)-6-(2,5-difluoro-4-methoxyphenyl)pyridin-3-yl)piperidin-3-yl)-2,2-difluoroethan-1-ol] are 35 nM, 434 nM and 1 to 10 nM.
As for `Cc1ccc(-c2cc(Cn3cnc4c(N)ncnc43)c(N3CCCC(N)(c4cccc(Cl)n4)C3)cn2)cn1` (stereo not drawn) [Example 229, 9-((5-(3-amino-3-(6-chloropyridin-2-yl)piperidin-1-yl)-6′-methyl-[2,3′-bipyridin]-4-yl)methyl)-9H-purin-6-amine], the IC50 in assay [1] is 1970 nM; in assay [2] (KMS11-Par line, 72 hours), 7490 nM; at NSD2 [1-1365], 10 to 1000 nM.
With `CC(C(=O)C1(N)CCCN(c2cnc(-c3ccc(F)c(F)c3)cc2Cn2cnc3c(N)ncnc32)C1)C1CC1` (stereo not drawn) [Example 103, 1-(3-amino-1-(4-((6-amino-9H-purin-9-yl)methyl)-6-(3,4-difluorophenyl)pyridin-3-yl)piperidin-3-yl)-2-cyclopropylpropan-1-one], the IC50 in assay [1] is 138 nM; in assay [2] (setting [3]), 379 nM; at NSD2 [1-1365] (setting [4]), 10 to 1000 nM.
